Data published in patent publication US20230416329A1, “A PEPTIDE WITH DISULFIDE BONDS AND INHIBITORY ACTIVITY AGAINST SERINE PROTEASES, DERIVED HYBRID PEPTIDES THEREOF, AND USES THEREOF” (INSTITUTE OF MATERIA MEDICA , CHINESE ACADEMY OF MEDICAL …, priority 2020, published 2023).
Bridge positions count the residues as written; N and C are the ends. Square brackets hold non-standard residues; d marks the D form. Peptide text beside a SMILES is read from it. Nle = CCCC[C@H](N)C(=O)O; Abu = CC[C@H](N)C(=O)O

Experiments:
chymotrypsin = chymotrypsin (Bos taurus, UniProt P00766); test: in vitro
Procedure: FIG. 18. […] At different time point, 25 μL aliquots was taken out, and 10% (v/v) TFA was added to terminate the reaction.
Mix by centrifugation at 8000 rpm for 30 seconds.
Arrange a certain volume of 0.05 μg/μL chymotrypsin solution in another sterile EP. Incubate the EP tubes containing peptides and enzymes at 37° C. for 5 min, and add 3 μL of […] solution to each EP tube containing peptides and mix well. Start timing and extract 25 μL of reaction solution at 1.5, 3.0, 4.5, 6.0 and 9.0 min later, respectively. Add 3.75 μL of 10% TFA to terminate the reaction and mix well by centrifugation at 8000 rpm for 30 seconds.
Arrange a certain volume of 0.05 μg/μL chymotrypsin solution in another sterile EP. Incubate the EP tubes containing peptides and enzymes at 37° C. for 5 min, and then add 4.5 μL of chymotrypsin solution to each EP tube containing peptides and mix well. Start timing and extract 25 μL of reaction solution at 1.5, 3.0, 4.5, 6.0, 9.0, 15.0, 30.0, and 60.0 min later, respectively. Add 3.75 μL of 10% TFA to terminate the reaction and mix well by centrifugation at 8000 rpm for 30 seconds.
Referring to the experimental method in Example 5, in vitro stability of salmon Calcitonin analogs with oral administration activity to the enzymatic hydrolysis by trypsin, chymotrypsin and elastase were performed.
Referring to the experimental method in Example 5, in vitro stability of IL-17A inhibitory peptides towards the enzymatic hydrolysis by trypsin, chymotrypsin and elastase were performed.

bovine trypsin = molecular target: T1, bovine trypsin (Bos taurus, UniProt P00760); test: Trypsin inhibitory activity of peptides (BApNA hydrolysis, OD405; IC50, Ki, residual activity); assay type: biochemical; conditions: for Ki: Ki=IC50/(1+S/Km), Km 0.33 mM, read-out: Ki; for IC50: trypsin 50 nM, BApNA 1.22 mM, read-out: IC50
T1 sequence (P00760 24-246): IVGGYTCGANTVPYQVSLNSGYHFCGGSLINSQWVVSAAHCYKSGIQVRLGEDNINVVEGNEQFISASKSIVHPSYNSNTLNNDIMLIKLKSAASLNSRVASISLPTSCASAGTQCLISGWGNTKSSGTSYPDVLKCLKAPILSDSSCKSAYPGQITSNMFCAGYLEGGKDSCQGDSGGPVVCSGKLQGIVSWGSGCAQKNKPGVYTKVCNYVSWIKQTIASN
Summary of the method: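 Trypsin (50 nM final) preincubated with peptides at 37 °C in 50 mM Tris-HCl pH 7.8, 20 mM CaCl2; BApNA added (1.22 mM final), 260 min at 37 °C, then OD405 read. Residual activity from enzyme-only and substrate-only controls; IC50 fitted and converted to Ki via Ki=IC50/(1+S/Km), Km measured separately for BApNA.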

[1] = isolated enzyme chymotrypsin, pH 7.8, Remaining peak area (%)/chymotrypsin

inhibitory activity against trypsin (in words) (bovine trypsin) | Ki (bovine trypsin) [nM] | IC50 (bovine trypsin) [nM] | Compound | also measured
– | 30 | 130 | CC[C@H](C)[C@@H]1NC(=O)[C@@H]2CCCN2C(=O)[C@@H]2CCCN2C(=O)[C@H]([C@@H](C)CC)NC(=O)[C@H](CO)NC(=O)[C@H](CCCCN)NC(=O)[C@H]([C@@H](C)O)NC(=O)[C@H](C)NC(=O)[C@H](CCCNC(=N)N)NC(=O)[C@H](CC(C)C)NC(=O)[C@@H](N)CSSC[C@@H](C(=O)N[C@@H](Cc2ccccc2)C(=O)O)NC1=O [BT72] (H-CLRATKSIPPICF-OH; disulfide 1-12; N-terminus and C-terminus assumed) | –
excellent trypsin inhibitory activities | 8.5 | 40 | CC[C@H](C)[C@@H]1NC(=O)[C@@H]2CCCN2C(=O)[C@@H]2CCCN2C(=O)[C@H]([C@@H](C)CC)NC(=O)[C@H](CO)NC(=O)[C@H](CCCCN)NC(=O)[C@H]([C@@H](C)O)NC(=O)[C@H](C)NC(=O)[C@H](CCCNC(=N)N)NC(=O)[C@H](CO)NC(=O)[C@@H](N)CSSC[C@@H](C(=O)N[C@@H](Cc2ccccc2)C(=O)O)NC1=O [BT75] (H-CSRATKSIPPICF-OH; disulfide 1-12; N-terminus and C-terminus assumed) | –
excellent trypsin inhibitory activities | – | 30 | CC[C@H](C)[C@@H]1NC(=O)[C@@H]2CCCN2C(=O)[C@@H]2CCCN2C(=O)[C@H]([C@@H](C)CC)NC(=O)[C@H](CO)NC(=O)[C@H](CCCCN)NC(=O)[C@H]([C@@H](C)O)NC(=O)[C@H](C)NC(=O)[C@H](CCCNC(=N)N)NC(=O)[C@H](CCC(=O)O)NC(=O)[C@@H](N)CSSC[C@@H](C(=O)N[C@@H](Cc2ccccc2)C(=O)O)NC1=O [BT78] (H-CERATKSIPPICF-OH; disulfide 1-12; N-terminus and C-terminus assumed) | –
– | 20 | – | CCCC[C@@H]1NC(=O)[C@@H](N)CSSC[C@@H](C(=O)N[C@@H](Cc2ccccc2)C(=O)O)NC(=O)[C@H]([C@@H](C)CC)NC(=O)[C@@H]2CCCN2C(=O)[C@@H]2CCCN2C(=O)[C@H]([C@@H](C)CC)NC(=O)[C@H](CO)NC(=O)[C@H](CCCCN)NC(=O)[C@H]([C@@H](C)O)NC(=O)[C@H](C)NC(=O)[C@H](CCCNC(=N)N)NC1=O [BT80] (H-C[Nle]RATKSIPPICF-OH; disulfide 1-12; N-terminus and C-terminus assumed) | –

Continued, compound first:

Compound | inhibitory activity against trypsin (in words) (bovine trypsin) | Ki (bovine trypsin) [nM] | IC50 (bovine trypsin) [nM] | also measured
CC[C@H](C)[C@H](N)C(=O)N[C@@H](Cc1c[nH]cn1)C(=O)N[C@H](C(=O)N[C@H](C(=O)N[C@H](C(=O)N1CCC[C@H]1C(=O)N[C@@H](C)C(=O)N[C@@H](CC(=O)O)C(=O)N[C@@H](CC(C)C)C(=O)N[C@@H](Cc1c[nH]c2ccccc12)C(=O)N[C@@H](CC(=O)O)C(=O)N[C@@H](Cc1c[nH]c2ccccc12)C(=O)N[C@H](C(=O)N[C@@H](CC(N)=O)C(=O)NCC(=O)N[C@@H](Cc1ccccc1)C(=O)N[C@H]1CSSC[C@@H](C(=O)N[C@@H](Cc2ccc(O)cc2)C(=O)NCC(=O)O)NC(=O)[C@H](CCC(N)=O)NC(=O)[C@@H]2CCCN2C(=O)[C@@H]2CCCN2C(=O)[C@H]([C@@H](C)CC)NC(=O)[C@H](CO)NC(=O)[C@H](Cc2ccc(O)cc2)NC(=O)[C@H]([C@@H](C)O)NC1=O)[C@@H](C)CC)[C@@H](C)CC)[C@@H](C)O)C(C)C [17A-CH] (H-IHVTIPADLWDWINGFCTYSIPPQCYG-OH; disulfide 17-25) | – | – | – | stability towards chymotrypsin hydrolysis (in words) (chymotrypsin): tolerated to the degradation of corresponding serine proteases; Remaining peak area (%)/chymotrypsin (chymotrypsin; 0 h): 100.0 ± 0.0%; remaining at 0.025 h, 60 μM (chymotrypsin; [1]): 41.6 ± 3%; remaining at 0.05 h, 60 μM (chymotrypsin; [1]): 41.7 ± 6%; remaining at 0.075 h, 60 μM (chymotrypsin; [1]): 38.8 ± 3.4%; remaining at 0.1 h, 60 μM (chymotrypsin; [1]): 45.1 ± 8.5%; remaining at 0.15 h, 60 μM (chymotrypsin; [1]): 44.3 ± 7.6%; remaining at 0.25 h, 60 μM (chymotrypsin; [1]): 35.2 ± 3.8%; remaining at 0.5 h, 60 μM (chymotrypsin; [1]): 30.5 ± 2.5%; remaining at 1 h, 60 μM (chymotrypsin; [1]): 35.7 ± 3%
CC[C@H](C)[C@@H]1NC(=O)[C@@H]2CCCN2C(=O)[C@@H]2CCCN2C(=O)[C@H]([C@@H](C)CC)NC(=O)[C@H](CO)NC(=O)[C@H](CCCCN)NC(=O)[C@H]([C@@H](C)O)NC(=O)[C@H](C)NC(=O)[C@H](CCCNC(=N)N)NC(=O)[C@H](C(C)C)NC(=O)[C@@H](N)CSSC[C@@H](C(=O)N[C@@H](Cc2ccccc2)C(=O)O)NC1=O [BT71] (H-CVRATKSIPPICF-OH; disulfide 1-12; N-terminus and C-terminus assumed) | excellent trypsin inhibitory activities | 20 | 110 | –
CC[C@H](C)[C@@H]1NC(=O)[C@@H](N)CSSC[C@@H](C(=O)N[C@@H](Cc2ccccc2)C(=O)O)NC(=O)[C@H]([C@@H](C)CC)NC(=O)[C@@H]2CCCN2C(=O)[C@@H]2CCCN2C(=O)[C@H]([C@@H](C)CC)NC(=O)[C@H](CO)NC(=O)[C@H](CCCCN)NC(=O)[C@H]([C@@H](C)O)NC(=O)[C@H](C)NC(=O)[C@H](CCCNC(=N)N)NC1=O [BT73] (H-CIRATKSIPPICF-OH; disulfide 1-12; N-terminus and C-terminus assumed) | – | 30 | 120 | –
CC[C@@H]1NC(=O)[C@@H](N)CSSC[C@@H](C(=O)N[C@@H](Cc2ccccc2)C(=O)O)NC(=O)[C@H]([C@@H](C)CC)NC(=O)[C@@H]2CCCN2C(=O)[C@@H]2CCCN2C(=O)[C@H]([C@@H](C)CC)NC(=O)[C@H](CO)NC(=O)[C@H](CCCCN)NC(=O)[C@H]([C@@H](C)O)NC(=O)[C@H](C)NC(=O)[C@H](CCCNC(=N)N)NC1=O [BT74] (H-C[Abu]RATKSIPPICF-OH; disulfide 1-12; N-terminus and C-terminus assumed) | excellent trypsin inhibitory activities | 20 | 90 | –
CC[C@H](C)[C@@H]1NC(=O)[C@@H]2CCCN2C(=O)[C@@H]2CCCN2C(=O)[C@H]([C@@H](C)CC)NC(=O)[C@H](CO)NC(=O)[C@H](CCCCN)NC(=O)[C@H]([C@@H](C)O)NC(=O)[C@H](C)NC(=O)[C@H](CCCNC(=N)N)NC(=O)[C@H](CCCNC(=N)N)NC(=O)[C@@H](N)CSSC[C@@H](C(=O)N[C@@H](Cc2ccccc2)C(=O)O)NC1=O [BT76] (H-CRRATKSIPPICF-OH; disulfide 1-12; N-terminus and C-terminus assumed) | excellent trypsin inhibitory activities | 10 | 50 | –
CC[C@H](C)[C@@H]1NC(=O)[C@@H]2CCCN2C(=O)[C@@H]2CCCN2C(=O)[C@H]([C@@H](C)CC)NC(=O)[C@H](CO)NC(=O)[C@H](CCCCN)NC(=O)[C@H]([C@@H](C)O)NC(=O)[C@H](C)NC(=O)[C@H](CCCNC(=N)N)NC(=O)[C@H](CCCCN)NC(=O)[C@@H](N)CSSC[C@@H](C(=O)N[C@@H](Cc2ccccc2)C(=O)O)NC1=O [BT77] (H-CKRATKSIPPICF-OH; disulfide 1-12; N-terminus and C-terminus assumed) | excellent trypsin inhibitory activities | 8.5 | 40 | –
CC[C@H](C)[C@@H]1NC(=O)[C@@H]2CCCN2C(=O)[C@@H]2CCCN2C(=O)[C@H]([C@@H](C)CC)NC(=O)[C@H](CO)NC(=O)[C@H](CCCCN)NC(=O)[C@H]([C@@H](C)O)NC(=O)[C@H](C)NC(=O)[C@H](CCCNC(=N)N)NC(=O)[C@H](CCC(N)=O)NC(=O)[C@@H](N)CSSC[C@@H](C(=O)N[C@@H](Cc2ccccc2)C(=O)O)NC1=O [BT79] (H-CQRATKSIPPICF-OH; disulfide 1-12; N-terminus and C-terminus assumed) | excellent trypsin inhibitory activities | 10 | 50 | –
